Measured values reported in US20250262206A1, “USE OF TACHYKININ RECEPTOR 3 INHIBITÓR” (WUHAN UNIVERSITY, priority 2021, published 2025).
Like-named read-outs stand apart in the source and are kept apart here.

What was measured:
C57BL/6J-APCMin/+ mice = assay: Kidney damage caused by intestinal adenoma in C57BL/6J-APCMin/+ mice; format: in vivo, mouse; details: 10 mg/kg/day intraperitoneal, 9 days
Description: C57BL/6J-APCMin/+ mice are a mature mammalian intestinal adenoma model and are commonly used to study host consumption caused by tumors.
Methods: Male mice of C57BL/6J in the control group and C57BL/6J-APCMin/+ in the experimental group (7 mice in each group) were fed to 16 weeks of age under normal feeding conditions. When the mice in the experimental group began to lose weight, they were injected intraperitoneally with Fezolinetant (0, 10 mg/kg/day) for 9 consecutive days, and the body weight and urine output were measured, and the kidneys were stained to observe the tubular morphology.

[1] = test system: hot flashes in postmenopausal women; details: Phase 2 clinical trials; cited from earlier work
[2] = test system: Yki activated Drosophila (intestinal tumors); assay: Drosophila ascites caused by yki intestinal tumors; format: in vivo; details: 100 μM in food, yki intestinal tumor Drosophila, 6 days / 8 days
Source text: Overexpression of the activated proto-oncogene yki in Drosophila intestinal stem cells can lead to malignant proliferation of intestinal stem cells, and then the formation of tumors. The formation of tumors seriously damages the secretory function of Drosophila Malpighian tubules, leading to the inability of circulating water in the Drosophila hemolymph to be drained out of the body, and the emergence of a severe ascites phenotype. Methods: Activated yki tumors (genotypes esg-Gal4, UAS-GFP, tub-Gal80TS/+; UAS-yki3SA/+) were induced in the Drosophila intestine by initiating gene expression at 29° C. Drosophilas were fed with food supplemented with DMSO, Fezolinetant (10 μM, 100 μM), and Pavinetant (10 μM, 100 μM), […], and compared with the control group (esg-Gal4, UAS-GFP, tub-Gal80TS/+), to observe phenotypes, detect intestinal tumor growth and systemic glycolipid changes, and count ascites ratios.

cytochrome P450-3A4 = cytochrome P450-3A4 (Homo sapiens, UniProt P08684); details: cited from earlier work
[3] = test system: polycystic ovary syndrome; details: Phase 2 clinical trials; cited from earlier work
[4] = test system: MFC tumor mice (C57BL/6J); assay: Ascites and kidney damage caused by MFC forestomach cancer cells in mice; format: in vivo, mouse; details: 50 mg/kg/day intraperitoneal, 5 days
Description: MFC tumor (Mouse forestomach carcinoma), a common tumor that may cause ascites, colonizes the peritoneal cavity of mice. With their growth, the tumors may cause severe ascites accumulation and renal tubular damage in mice. Methods: C57BL/6J male mice, 4-6 weeks old. C57BL/6J mice in experimental group (6 mice in each group) were intraperitoneally injected with 1.5×10^7 MFC tumor cells, and 24 hours later, intraperitoneally injected with the inhibitor Pavinetant (0, 10, 50 mg/kg/day), and after 5 days of continuous administration, they were compared with the control group C57BL/6 (6 mice in each group). The body weight, ascites, and urine output were detected, and the kidneys were stained to observe the tubular morphology.

Chain of cytochrome P450-3A4 (P08684 whole entry): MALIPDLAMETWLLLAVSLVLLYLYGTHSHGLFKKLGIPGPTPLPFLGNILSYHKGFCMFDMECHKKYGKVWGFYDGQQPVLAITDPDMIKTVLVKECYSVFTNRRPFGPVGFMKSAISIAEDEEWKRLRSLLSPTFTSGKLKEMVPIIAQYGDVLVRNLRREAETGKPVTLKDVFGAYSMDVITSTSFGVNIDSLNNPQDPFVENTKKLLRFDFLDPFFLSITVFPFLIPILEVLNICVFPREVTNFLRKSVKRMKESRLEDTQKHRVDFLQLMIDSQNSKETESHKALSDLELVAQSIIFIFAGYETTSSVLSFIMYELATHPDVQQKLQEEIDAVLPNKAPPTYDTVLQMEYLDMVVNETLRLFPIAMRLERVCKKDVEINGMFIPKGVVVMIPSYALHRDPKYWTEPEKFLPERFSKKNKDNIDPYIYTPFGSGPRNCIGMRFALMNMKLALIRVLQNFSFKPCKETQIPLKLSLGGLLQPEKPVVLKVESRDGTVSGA

Compound	renal tubular damage (HE staining, tubular dilatation) (C57BL/6J-APCMin/+ mice)	urine output (C57BL/6J-APCMin/+ mice)	effect on hot flashes [1]	ascites in Drosophila [2]	blood glucose in Drosophila [2]	IC50 (cytochrome P450-3A4; midazolam, read-out: in vitro inhibitory IC50, cytochrome P450-3A4 enzyme activity, midazolam testing) [µM]	IC50 (cytochrome P450-3A4; testosterone, read-out: in vitro inhibitory IC50, cytochrome P450-3A4 enzyme activity, testosterone testing) [µM]	effect on polycystic ovary syndrome [3]	generation of ascites [4]	renal tubular lesions (renal tubular dilation) [4]
Cc1nsc(-c2nnc3n2CCN(C(=O)c2ccc(F)cc2)[C@@H]3C)n1 [Fezolinetant]	significantly restored	significantly restored	significant improvement effect	significantly reduce	normalize	–	–	–	–	–
CC[C@H](NC(=O)c1c(NS(C)(=O)=O)c(-c2ccccc2)nc2ccccc12)c1ccccc1 [Pavinetant]	–	–	significantly improves	significantly reduce	normalize	7.1	19.8	significantly improves	significantly inhibit	alleviate
